This note sets out measurements from patent US9688661B2, “Substituted pyrroles active as kinases inhibitors” (NERVIANO MEDICAL SCIENCES S.R.L., priority 2012, dated 2017).

The term IC50 denotes the concentration that inhibits the measured activity by half.

One experiment deals with JAK2 kinase domain (Homo sapiens (Human), UniProt O60674). Nature of the experiment: Biochemical assay for inhibitors of JAK kinase activity, JAK2. The settings on record: JAK2 kinase domain 1 nM, 60 μM ATP. How it is done: (§1) Specific JAK2, JAK1 or JAK3 peptide substrates are trans-phosphorylated by JAK kinases in the presence of ATP traced with 33P-γ-ATP. At the end of the phosphorylation reaction, the unreacted ATP, cold and radioactive, is captured by an excess of dowex ion exchange resin that eventually settles by gravity to the bottom of the reaction plate. The supernatant is subsequently withdrawn and transferred into a counting plate that is then evaluated by β-counting.
(§2) 500 g of wet resin (SIGMA, custom prepared resin DOWEX 1×8 200-400 mesh, 2.5 Kg) are weighed out and diluted 2 to 1 in 150 mM sodium formate, pH 3.00. The resin is allowed to settle down overnight and then the supernatant is discarded. After three washes as above over a couple of days, the resin is allowed to settle and two volumes (with respect to the resin volume) of 150 mM sodium formate buffer are added.
(§3) Kinase buffer was composed of 50 mM HEPES pH 7.5 containing 10 mM MgCl2, 2.5 mM DTT, 10 μM Na3VO4 and 0.2 mg/mL BSA.
(§4) The peptidic substrate was purchased from American Peptide Company (Sunnyvale, Calif.).
(§5) Data are analyzed by Symix Assay Explorer software (Symix Technologies Inc.) that provides sigmoidal fitting algorithm of the 8 points dilutions curves for IC50 determination.

In experiment [1] the test system is JAK2 dependent human megakaryoblastic leukemia cell line SET-2. Put plainly: Cell proliferation assay, SET-2. The class given is cell-based. The settings on record: SET-2 cells, 72 hours, CellTiter-Glo. In general terms: Cellular ATP, detected with luciferase, serves as a proxy for viable cell number.
The test system of experiment [2] is JAK2 independent human chronic myelogenous leukaemia cell line K562. Put plainly: Cell proliferation assay, K562. The class given is cell-based. The settings on record: K562 cells, 72 hours, CellTiter-Glo, read-out: IC50 K-562.
The subject of experiment [3] is IL-2 dependent human T lymphoma cell line DERL-7. Put plainly: Cell proliferation assay, DERL-7. The format is cell-based. The settings on record: DERL-7 cells, 20 ng/ml human IL-2, 72 hours, CellTiter-Glo. How it is done:
the JAK2 dependent human megakaryoblastic leukemia cell line SET-2 (DSMZ, Braunschweig GERMANY), and JAK2 independent human chronic myelogenous leukaemia cell line K562 (ECACC, Wiltshire, UK) were cultured in RPMI-1640 medium-Glutamax (Gibco BRL, Gaithesburg, Md., USA), supplemented with 10% fetal bovine serum (FBS) at 37° C. and 5% CO2. The IL-2 dependent human T lymphoma cell line DERL-7 (DSMZ, Braunschweig GERMANY) was used to test the activity of compounds in cells on JAK1/JAK3 kinases activated by IL-2. The DERL-7 cell lines were cultured in RPMI-1640 medium-Glutamax (Gibco BRL, Gaithesburg, Md., USA), supplemented with 20% FBS and 20 ng/ml of human IL-2 (Sigma-Aldrich, St. Louis, Mo., USA).
Approximately 5×10^3 cells were plated into 384 microtiter plate wells in 50 μL of growth media with different concentrations of inhibitors. The cells were incubated at 37° C. and 5% CO2 for 72 hours, than the plates were processed using CellTiter-Glo assay (Promega, Madison, Wis., USA) following the manufacturer's instruction. Briefly 25 μL/well reagent solution are added to each wells and after 5 minutes shacking micro-plates are read by Envision luminometer (PerkinElmer, Waltham, Mass., USA).
as §5

In the next experiment the target is JAK1 kinase domain (Homo sapiens (Human), UniProt P23458). Put plainly: Biochemical assay for inhibitors of JAK kinase activity, JAK1. The settings on record: preactivated JAK1 kinase domain 2.5 nM, 100 μM ATP. How it is done: as §1, §2, §3
Assays were performed with the JAK1 kinase domain (residues 861-1152 of the 1154 amino acid long full-length sequence, accession number P23458 of UniProtKB/Swiss-Prot database).
The JAK1 kinase domain was preactivated with ATP for 1 h at 28° C. in order to obtain a linear kinetic.
as §4, §5

The next experiment has as its target TYK2 kinase domain (Homo sapiens (Human), UniProt P29597). Nature of the experiment: Biochemical assay for inhibitors of JAK kinase activity, TYK2. The settings on record: TYK2 kinase domain 3 nM, 31 μM ATP. How it is done: as §1, §2, §3, §4, §5

Like-named read-outs stand apart in the source and are kept apart here.

Chain of JAK2 kinase domain (O60674 849-1124): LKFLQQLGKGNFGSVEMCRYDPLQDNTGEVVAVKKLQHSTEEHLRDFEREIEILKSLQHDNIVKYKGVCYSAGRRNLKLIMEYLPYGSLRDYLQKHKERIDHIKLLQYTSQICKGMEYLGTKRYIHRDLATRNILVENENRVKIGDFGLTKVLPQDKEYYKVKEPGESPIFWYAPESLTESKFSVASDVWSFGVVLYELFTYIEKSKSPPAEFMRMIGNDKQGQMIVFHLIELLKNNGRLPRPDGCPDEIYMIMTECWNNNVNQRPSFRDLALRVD
Chain of JAK1 kinase domain (P23458 861-1152): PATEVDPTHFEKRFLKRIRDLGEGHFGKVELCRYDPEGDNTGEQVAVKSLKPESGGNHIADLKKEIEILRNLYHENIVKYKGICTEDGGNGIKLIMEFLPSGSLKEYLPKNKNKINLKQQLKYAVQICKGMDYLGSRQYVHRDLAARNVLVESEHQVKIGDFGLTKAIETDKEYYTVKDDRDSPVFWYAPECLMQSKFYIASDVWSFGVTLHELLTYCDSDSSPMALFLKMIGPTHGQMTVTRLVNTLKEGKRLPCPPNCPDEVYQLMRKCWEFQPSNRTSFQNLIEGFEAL
Chain of TYK2 kinase domain (P29597 833-1187): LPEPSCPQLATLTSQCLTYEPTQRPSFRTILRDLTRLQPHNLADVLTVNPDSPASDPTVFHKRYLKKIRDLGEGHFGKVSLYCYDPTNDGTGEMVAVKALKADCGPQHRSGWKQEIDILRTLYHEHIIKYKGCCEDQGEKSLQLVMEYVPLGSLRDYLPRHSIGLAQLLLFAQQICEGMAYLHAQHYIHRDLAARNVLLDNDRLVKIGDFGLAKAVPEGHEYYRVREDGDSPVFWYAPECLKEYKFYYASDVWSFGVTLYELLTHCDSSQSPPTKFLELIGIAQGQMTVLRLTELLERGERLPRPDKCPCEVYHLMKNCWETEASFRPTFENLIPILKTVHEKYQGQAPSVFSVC

For the compound `Cc1ccc(Cl)cc1-n1cc(-c2ncnc3[nH]ccc23)cc1C(N)=O` [compd 229, 1-(5-Chloro-2-methylphenyl)-4-(7H-pyrrolo[2,3-d]pyrimidin-4-yl)-1H-pyrrole-2-carboxamide], the 50% inhibitory concentration (IC50) against JAK2 kinase domain is 1 nM; in experiment [1] it was 80 nM; in experiment [2] it was above 10 µM; in experiment [3] (DERL7), 463 nM; at JAK1 kinase domain, 3 nM; against TYK2 kinase domain, 2 nM.
Regarding `CCc1ccc(C(F)(F)F)cc1-c1[nH]c(-c2cc(NC)ncn2)cc1C(N)=O` [compd 219, 2-[2-Ethyl-5-(trifluoromethyl)phenyl]-5-[6-(methylamino)pyrimidin-4-yl]-1H-pyrrole-3-carboxamide], the concentration for half-maximal inhibition (IC50) on JAK2 kinase domain is 4 nM; in experiment [1], 270 nM; in experiment [2], above 10 µM; in experiment [3] (DERL7) it was 392 nM; against JAK1 kinase domain, 14 nM; against TYK2 kinase domain it was 46 nM.
Consider `CCc1ccc(Cl)cc1-n1cc(-c2ncnc3[nH]ccc23)cc1C#N` [compd 68, 1-(5-Chloro-2-ethylphenyl)-4-(7H-pyrrolo[2,3-d]pyrimidin-4-yl)-1H-pyrrole-2-carbonitrile], for which the IC50 against JAK2 kinase domain turned out to be 6 nM; in experiment [1], 340 nM; in experiment [2], 4.13 µM; in experiment [3] (DERL7), 332 nM; on JAK1 kinase domain, 14 nM; on TYK2 kinase domain, 12 nM.
Regarding `CCc1ccc(C(F)(F)F)cc1-c1[nH]c(-c2cc(N)ncn2)cc1C(=O)NC` [compd 321, 5-(6-Aminopyrimidin-4-yl)-2-[2-ethyl-5-(trifluoromethyl)phenyl]-N-methyl-1H-pyrrole-3-carboxamide], the IC50 was 3 nM on JAK2 kinase domain; 250 nM in experiment [1]; above 10 µM in experiment [2]; 548 nM in experiment [3] (DERL7); 9 nM against JAK1 kinase domain; 38 nM on TYK2 kinase domain.
For the compound `CCc1ccc(Cl)cc1-c1[nH]c(-c2cc(NC)ncn2)cc1C#N` [compd 10, 2-(5-Chloro-2-ethylphenyl)-5-[6-(methylamino)pyrimidin-4-yl]-H-pyrrole-3-carbonitrile], in experiment [3] (read-out: DERL7 IC50), the concentration for half-maximal inhibition (IC50) came out at 780 nM.
Turning to `Cc1ccc(C(F)(F)F)cc1-c1[nH]c(-c2ncnc3[nH]ccc23)cc1C(N)=O` [compd 213, 2-[2-Methyl-5-(trifluoromethyl)phenyl]-5-(7H-pyrrolo[2,3-d]pyrimidin-4-yl)-1H-pyrrole-3-carboxamide], the IC50 was 8 nM against JAK2 kinase domain; 290 nM in experiment [1]; above 10 µM in experiment [2]; 27 nM against JAK1 kinase domain; 73 nM on TYK2 kinase domain.
On to `CNC(=O)c1[nH]c(-c2ncnc3[nH]ccc23)cc1-c1cc(Cl)ccc1C` [compd 129, 3-(5-Chloro-2-methylphenyl)-N-methyl-5-(7H-pyrrolo[2,3-d]pyrimidin-4-yl)-1H-pyrrole-2-carboxamide], for which the IC50 against JAK2 kinase domain is 9 nM; in experiment [1], 690 nM; in experiment [2], above 10 µM; against JAK1 kinase domain, 38 nM; on TYK2 kinase domain, 70 nM.
In the same order, the values of `CCc1ccc(Cl)cc1-c1[nH]c(-c2cc(N)ncn2)cc1C(=O)NC` [compd 301, 5-(6-Aminopyrimidin-4-yl)-2-(5-chloro-2-ethylphenyl)-N-methyl-1H-pyrrole-3-carboxamide] are 5 nM, 290 nM, 4.13 µM, 19 nM and 88 nM.
As to `CCc1ccc(C(F)(F)F)cc1-n1cc(-c2cc(N)ncn2)cc1C(N)=O` [compd 256, 4-(6-Aminopyrimidin-4-yl)-1-[2-ethyl-5-(trifluoromethyl)phenyl]-1H-pyrrole-2-carboxamide], the IC50 against JAK2 kinase domain was 6 nM; in experiment [1] it was 620 nM; in experiment [2], above 10 µM; against JAK1 kinase domain, 53 nM; at TYK2 kinase domain, 31 nM.
Consider `Cc1ccc(Cl)cc1-c1cc(-c2ncnc3[nH]ccc23)[nH]c1C(N)=O` [compd 123, 3-(5-Chloro-2-methylphenyl)-5-(7H-pyrrolo[2,3-d]pyrimidin-4-yl)-1H-pyrrole-2-carboxamide], for which the IC50 against JAK2 kinase domain was 5 nM; in experiment [1], 460 nM; in experiment [2], 3.76 µM; at JAK1 kinase domain, 33 nM; against TYK2 kinase domain, 23 nM.
Consider `NC(=O)c1cc(-c2ncnc3[nH]ncc23)cn1-c1cc(C(F)(F)F)ccc1Cl` [compd 246, 1-[2-Chloro-5-(trifluoromethyl)phenyl]-4-(1H-pyrazolo[3,4-d]pyrimidin-4-yl)-1H-pyrrole-2-carboxamide], for which the half-inhibitory concentration (IC50) against JAK2 kinase domain is 18 nM; in experiment [1], 1200 nM; in experiment [2], 3.49 µM; against JAK1 kinase domain, 212 nM; at TYK2 kinase domain, 58 nM.
Consider `CCc1ccc(C(F)(F)F)cc1-c1[nH]c(-c2cc(NC)ncn2)cc1C(=O)NC` [compd 322, 2-[2-Ethyl-5-(trifluoromethyl)phenyl]-N-methyl-5-[6-(methylamino)pyrimidin-4-yl]-1H-pyrrole-3-carboxamide], for which the IC50 at JAK2 kinase domain is 4 nM; in experiment [1], 220 nM; in experiment [2] it was 2.8 µM; in experiment [3] (DERL7), 246 nM; against JAK1 kinase domain it was 13 nM.
As for `Cc1ccc(Cl)cc1-c1[nH]c(-c2ccnc3[nH]ccc23)cc1C(N)=O` [compd 192, 2-(5-Chloro-2-methylphenyl)-5-(1H-pyrrolo[2,3-b]pyridin-4-yl)-1H-pyrrole-3-carboxamide], the IC50 on JAK2 kinase domain was 13 nM; in experiment [1] it was 860 nM; in experiment [2], above 10 µM; against JAK1 kinase domain, 111 nM; against TYK2 kinase domain it was 51 nM.
Consider `Cc1ccc(Cl)cc1-n1cc(-c2ncnc3[nH]ccc23)cc1C#N` [compd 63, 1-(5-Chloro-2-methylphenyl)-4-(7H-pyrrolo[2,3-d]pyrimidin-4-yl)-1H-pyrrole-2-carbonitrile], for which the IC50 against JAK2 kinase domain is 4 nM; in experiment [1] it was 1380 nM; in experiment [2], 1.89 µM; at JAK1 kinase domain, 15 nM; against TYK2 kinase domain it was 13 nM.
For `Cc1ccc(Cl)cc1-n1cc(-c2ncnc3[nH]ncc23)cc1C(N)=O` [compd 232, 1-(5-Chloro-2-methylphenyl)-4-(1H-pyrazolo[3,4-d]pyrimidin-4-yl)-1H-pyrrole-2-carboxamide], the IC50 at JAK2 kinase domain is 33 nM; in experiment [1], 1680 nM; in experiment [2], above 10 µM; on JAK1 kinase domain it was 315 nM; at TYK2 kinase domain it was 69 nM.
For the compound `N#Cc1cc(-c2ncnc3[nH]ccc23)cn1-c1cc(C(F)(F)F)ccc1Cl` [compd 72, 1-[2-Chloro-5-(trifluoromethyl)phenyl]-4-(7H-pyrrolo[2,3-d]pyrimidin-4-yl)-1H-pyrrole-2-carbonitrile], the IC50 at JAK2 kinase domain amounted to 7 nM; in experiment [1], 510 nM; in experiment [2], 6.61 µM; on JAK1 kinase domain, 17 nM; against TYK2 kinase domain it was 38 nM.
For the compound `CCc1ccc(Cl)cc1-n1cc(-c2ncnc3[nH]ccc23)cc1C(N)=O` [compd 237, 1-(5-Chloro-2-ethylphenyl)-4-(7H-pyrrolo[2,3-d]pyrimidin-4-yl)-1H-pyrrole-2-carboxamide], the IC50 against JAK2 kinase domain is 1 nM; in experiment [1], 30 nM; in experiment [2], above 10 µM; in experiment [3] (DERL7), 18 nM.
